pKd: −log10 of the molar value. Active and inactive are the calls of the source. For most assays here, no stated cut-off is given here; in the data, actives have a measured Kd and inactives only a lower limit.
Experiments:
[1] = target: T1, Very long-chain specific acyl-CoA dehydrogenase, mitochondrial (Homo sapiens, UniProt P49748)
T1 sequence (P49748 whole entry): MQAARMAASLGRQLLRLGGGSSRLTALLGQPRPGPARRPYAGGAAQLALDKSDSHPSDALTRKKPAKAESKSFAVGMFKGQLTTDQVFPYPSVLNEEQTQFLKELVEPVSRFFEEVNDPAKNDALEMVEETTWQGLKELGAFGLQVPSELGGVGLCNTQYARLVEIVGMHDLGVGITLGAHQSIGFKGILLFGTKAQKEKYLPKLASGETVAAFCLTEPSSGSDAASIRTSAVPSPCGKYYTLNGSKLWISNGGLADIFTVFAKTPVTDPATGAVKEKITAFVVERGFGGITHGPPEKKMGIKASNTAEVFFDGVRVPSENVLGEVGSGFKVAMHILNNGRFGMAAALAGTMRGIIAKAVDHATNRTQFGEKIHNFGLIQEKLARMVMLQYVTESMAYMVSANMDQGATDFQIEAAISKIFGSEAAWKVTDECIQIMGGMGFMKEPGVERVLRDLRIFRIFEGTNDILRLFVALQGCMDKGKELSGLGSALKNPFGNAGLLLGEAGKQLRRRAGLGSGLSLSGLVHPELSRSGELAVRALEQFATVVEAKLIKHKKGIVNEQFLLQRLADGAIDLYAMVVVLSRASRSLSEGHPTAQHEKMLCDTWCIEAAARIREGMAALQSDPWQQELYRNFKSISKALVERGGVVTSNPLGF

[2] = target: Cyclin-dependent kinase 6 (Homo sapiens, UniProt Q00534)
[3] = target: Serine/threonine-protein kinase SIK3 (Homo sapiens, UniProt Q9Y2K2)
[4] = target: T2, Interleukin-1 receptor-associated kinase 4 (Homo sapiens, UniProt Q9NWZ3)
T2 sequence (Q9NWZ3 whole entry): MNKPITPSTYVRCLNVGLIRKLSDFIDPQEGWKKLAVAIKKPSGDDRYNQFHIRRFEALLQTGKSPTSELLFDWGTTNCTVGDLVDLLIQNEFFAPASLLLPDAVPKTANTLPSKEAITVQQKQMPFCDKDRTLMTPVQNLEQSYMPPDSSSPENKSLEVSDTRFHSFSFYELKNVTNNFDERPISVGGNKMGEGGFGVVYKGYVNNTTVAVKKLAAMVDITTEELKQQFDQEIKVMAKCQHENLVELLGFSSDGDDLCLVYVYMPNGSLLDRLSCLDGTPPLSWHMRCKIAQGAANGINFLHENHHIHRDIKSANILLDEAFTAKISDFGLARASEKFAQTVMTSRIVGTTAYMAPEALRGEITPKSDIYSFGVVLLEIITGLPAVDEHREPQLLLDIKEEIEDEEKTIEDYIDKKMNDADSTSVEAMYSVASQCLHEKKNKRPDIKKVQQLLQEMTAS

[5] = target: Serine/threonine-protein kinase N2 (Homo sapiens, UniProt Q16513)
[6] = target: T3, Serine/threonine-protein kinase PLK4 (Homo sapiens, UniProt O00444)
T3 sequence (O00444 whole entry): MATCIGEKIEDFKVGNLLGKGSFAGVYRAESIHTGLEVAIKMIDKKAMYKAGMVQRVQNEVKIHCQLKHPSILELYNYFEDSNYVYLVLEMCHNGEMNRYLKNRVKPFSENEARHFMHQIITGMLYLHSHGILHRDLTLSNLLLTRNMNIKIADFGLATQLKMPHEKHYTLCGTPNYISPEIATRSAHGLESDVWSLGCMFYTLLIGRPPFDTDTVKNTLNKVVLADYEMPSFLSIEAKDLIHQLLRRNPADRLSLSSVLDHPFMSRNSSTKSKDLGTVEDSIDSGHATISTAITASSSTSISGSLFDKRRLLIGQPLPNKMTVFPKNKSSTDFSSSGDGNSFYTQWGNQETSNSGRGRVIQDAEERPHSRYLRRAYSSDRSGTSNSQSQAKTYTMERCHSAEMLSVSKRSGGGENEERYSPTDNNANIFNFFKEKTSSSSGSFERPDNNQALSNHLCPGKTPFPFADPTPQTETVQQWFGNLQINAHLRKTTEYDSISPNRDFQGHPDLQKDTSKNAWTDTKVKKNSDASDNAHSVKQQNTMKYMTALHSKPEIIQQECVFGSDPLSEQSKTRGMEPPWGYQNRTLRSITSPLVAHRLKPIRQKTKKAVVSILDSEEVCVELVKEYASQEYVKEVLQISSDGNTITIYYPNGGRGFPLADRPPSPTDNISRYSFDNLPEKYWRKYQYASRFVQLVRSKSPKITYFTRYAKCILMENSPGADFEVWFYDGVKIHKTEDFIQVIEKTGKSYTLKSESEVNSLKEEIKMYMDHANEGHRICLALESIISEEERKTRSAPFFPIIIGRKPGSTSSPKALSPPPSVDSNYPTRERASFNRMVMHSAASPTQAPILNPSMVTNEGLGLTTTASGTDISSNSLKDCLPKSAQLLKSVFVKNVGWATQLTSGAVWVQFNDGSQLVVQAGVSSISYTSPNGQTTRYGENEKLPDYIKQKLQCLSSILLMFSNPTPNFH

[7] = target: Eukaryotic translation initiation factor 2-alpha kinase 1 (Homo sapiens, UniProt Q9BQI3)
[8] = target: Dual specificity tyrosine-phosphorylation-regulated kinase 1A (Homo sapiens, UniProt Q13627)
[9] = target: Serine/threonine-protein kinase 10 (Homo sapiens, UniProt O94804)
[10] = target: T4, Serine/threonine-protein kinase Chk1 (Homo sapiens, UniProt O14757)
T4 sequence (O14757 whole entry): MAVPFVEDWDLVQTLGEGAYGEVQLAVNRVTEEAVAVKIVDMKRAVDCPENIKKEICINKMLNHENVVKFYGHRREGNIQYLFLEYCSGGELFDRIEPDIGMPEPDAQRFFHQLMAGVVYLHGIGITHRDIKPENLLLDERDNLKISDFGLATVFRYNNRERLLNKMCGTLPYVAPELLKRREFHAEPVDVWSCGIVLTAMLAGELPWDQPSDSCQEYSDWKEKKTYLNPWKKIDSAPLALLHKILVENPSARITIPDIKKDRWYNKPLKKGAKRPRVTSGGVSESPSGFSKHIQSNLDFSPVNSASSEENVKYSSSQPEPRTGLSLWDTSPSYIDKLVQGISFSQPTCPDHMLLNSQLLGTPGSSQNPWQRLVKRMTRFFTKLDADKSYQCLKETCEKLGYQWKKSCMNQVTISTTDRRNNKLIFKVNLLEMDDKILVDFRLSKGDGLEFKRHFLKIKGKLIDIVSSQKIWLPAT

[11] = target: Platelet-derived growth factor receptor beta (Homo sapiens, UniProt P09619)
Sequence of Platelet-derived growth factor receptor beta (P09619 whole entry): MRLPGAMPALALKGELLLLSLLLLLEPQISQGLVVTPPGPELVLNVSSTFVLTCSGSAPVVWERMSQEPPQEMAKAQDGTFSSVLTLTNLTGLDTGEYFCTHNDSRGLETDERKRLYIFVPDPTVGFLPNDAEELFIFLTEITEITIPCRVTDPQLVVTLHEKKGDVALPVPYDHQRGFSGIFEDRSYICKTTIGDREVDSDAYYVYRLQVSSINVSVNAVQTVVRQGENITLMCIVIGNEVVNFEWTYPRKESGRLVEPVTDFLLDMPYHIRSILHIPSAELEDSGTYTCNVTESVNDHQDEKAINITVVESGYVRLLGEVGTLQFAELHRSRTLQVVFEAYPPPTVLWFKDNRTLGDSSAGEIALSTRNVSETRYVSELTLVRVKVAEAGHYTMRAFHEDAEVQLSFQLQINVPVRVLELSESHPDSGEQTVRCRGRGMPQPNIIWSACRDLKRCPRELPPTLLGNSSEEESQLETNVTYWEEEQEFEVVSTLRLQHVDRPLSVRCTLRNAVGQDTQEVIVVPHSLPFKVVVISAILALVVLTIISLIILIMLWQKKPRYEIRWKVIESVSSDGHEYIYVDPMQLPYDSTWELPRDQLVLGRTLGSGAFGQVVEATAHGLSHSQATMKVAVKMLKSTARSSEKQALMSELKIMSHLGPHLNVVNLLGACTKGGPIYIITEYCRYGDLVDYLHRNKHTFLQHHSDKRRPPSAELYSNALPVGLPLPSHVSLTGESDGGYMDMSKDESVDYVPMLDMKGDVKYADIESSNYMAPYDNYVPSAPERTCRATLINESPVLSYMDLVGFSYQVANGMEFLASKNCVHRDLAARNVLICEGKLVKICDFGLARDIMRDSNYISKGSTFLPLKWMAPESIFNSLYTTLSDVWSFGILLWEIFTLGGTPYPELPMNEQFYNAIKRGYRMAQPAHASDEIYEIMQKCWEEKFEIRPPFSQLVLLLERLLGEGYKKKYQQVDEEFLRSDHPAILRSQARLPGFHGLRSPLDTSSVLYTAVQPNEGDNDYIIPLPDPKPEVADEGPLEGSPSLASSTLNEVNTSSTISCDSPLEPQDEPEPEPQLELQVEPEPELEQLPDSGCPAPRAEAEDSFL

Sequence of Eukaryotic translation initiation factor 2-alpha kinase 1 (Q9BQI3 whole entry): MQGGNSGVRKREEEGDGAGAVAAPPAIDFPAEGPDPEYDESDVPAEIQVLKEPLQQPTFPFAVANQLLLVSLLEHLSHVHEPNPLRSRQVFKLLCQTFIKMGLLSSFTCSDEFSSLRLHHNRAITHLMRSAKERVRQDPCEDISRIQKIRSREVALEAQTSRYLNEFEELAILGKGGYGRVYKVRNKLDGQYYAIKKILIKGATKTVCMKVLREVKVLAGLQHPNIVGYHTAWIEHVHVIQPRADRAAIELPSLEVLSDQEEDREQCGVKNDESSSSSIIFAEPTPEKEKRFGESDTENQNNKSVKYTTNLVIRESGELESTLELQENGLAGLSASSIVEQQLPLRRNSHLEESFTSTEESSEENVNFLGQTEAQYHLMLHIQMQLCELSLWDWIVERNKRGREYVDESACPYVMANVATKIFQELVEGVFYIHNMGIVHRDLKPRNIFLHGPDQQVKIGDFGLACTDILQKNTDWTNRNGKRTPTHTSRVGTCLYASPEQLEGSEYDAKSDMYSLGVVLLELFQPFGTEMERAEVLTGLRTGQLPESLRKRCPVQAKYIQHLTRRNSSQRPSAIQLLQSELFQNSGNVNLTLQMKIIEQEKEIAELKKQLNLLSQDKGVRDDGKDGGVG
Sequence of Serine/threonine-protein kinase N2 (Q16513 whole entry): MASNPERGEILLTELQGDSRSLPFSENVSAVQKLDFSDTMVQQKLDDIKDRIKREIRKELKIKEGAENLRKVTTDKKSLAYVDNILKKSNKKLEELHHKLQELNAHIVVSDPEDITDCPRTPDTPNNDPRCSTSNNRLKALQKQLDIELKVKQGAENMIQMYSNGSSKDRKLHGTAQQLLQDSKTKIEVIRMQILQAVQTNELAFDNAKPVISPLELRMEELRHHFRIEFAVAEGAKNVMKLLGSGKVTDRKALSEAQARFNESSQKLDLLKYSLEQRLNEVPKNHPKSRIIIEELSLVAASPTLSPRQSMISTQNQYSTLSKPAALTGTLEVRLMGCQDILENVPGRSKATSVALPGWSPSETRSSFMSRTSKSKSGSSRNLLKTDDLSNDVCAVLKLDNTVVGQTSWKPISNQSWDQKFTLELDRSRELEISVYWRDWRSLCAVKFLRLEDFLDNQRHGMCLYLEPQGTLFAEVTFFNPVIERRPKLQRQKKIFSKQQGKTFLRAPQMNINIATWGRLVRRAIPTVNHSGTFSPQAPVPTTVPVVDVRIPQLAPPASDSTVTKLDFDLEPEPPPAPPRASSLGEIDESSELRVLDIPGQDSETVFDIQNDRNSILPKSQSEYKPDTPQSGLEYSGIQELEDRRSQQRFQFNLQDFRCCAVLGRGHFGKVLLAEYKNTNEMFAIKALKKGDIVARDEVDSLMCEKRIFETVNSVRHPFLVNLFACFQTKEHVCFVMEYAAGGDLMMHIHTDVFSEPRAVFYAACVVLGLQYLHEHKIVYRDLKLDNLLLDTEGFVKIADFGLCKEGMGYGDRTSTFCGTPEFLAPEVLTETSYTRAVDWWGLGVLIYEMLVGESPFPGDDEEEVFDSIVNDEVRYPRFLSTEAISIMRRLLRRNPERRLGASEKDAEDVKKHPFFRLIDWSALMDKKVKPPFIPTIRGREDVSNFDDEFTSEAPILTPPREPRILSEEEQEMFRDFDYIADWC
Sequence of Cyclin-dependent kinase 6 (Q00534 whole entry): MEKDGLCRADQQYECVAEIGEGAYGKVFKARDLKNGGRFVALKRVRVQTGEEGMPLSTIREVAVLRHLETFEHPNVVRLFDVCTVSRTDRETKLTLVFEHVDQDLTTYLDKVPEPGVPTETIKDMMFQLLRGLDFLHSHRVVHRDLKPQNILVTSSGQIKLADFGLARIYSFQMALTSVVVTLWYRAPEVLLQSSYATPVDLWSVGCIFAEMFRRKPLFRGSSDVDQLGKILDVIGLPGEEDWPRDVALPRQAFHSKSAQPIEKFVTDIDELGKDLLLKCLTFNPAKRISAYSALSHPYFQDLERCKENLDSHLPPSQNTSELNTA
Sequence of Serine/threonine-protein kinase 10 (O94804 whole entry): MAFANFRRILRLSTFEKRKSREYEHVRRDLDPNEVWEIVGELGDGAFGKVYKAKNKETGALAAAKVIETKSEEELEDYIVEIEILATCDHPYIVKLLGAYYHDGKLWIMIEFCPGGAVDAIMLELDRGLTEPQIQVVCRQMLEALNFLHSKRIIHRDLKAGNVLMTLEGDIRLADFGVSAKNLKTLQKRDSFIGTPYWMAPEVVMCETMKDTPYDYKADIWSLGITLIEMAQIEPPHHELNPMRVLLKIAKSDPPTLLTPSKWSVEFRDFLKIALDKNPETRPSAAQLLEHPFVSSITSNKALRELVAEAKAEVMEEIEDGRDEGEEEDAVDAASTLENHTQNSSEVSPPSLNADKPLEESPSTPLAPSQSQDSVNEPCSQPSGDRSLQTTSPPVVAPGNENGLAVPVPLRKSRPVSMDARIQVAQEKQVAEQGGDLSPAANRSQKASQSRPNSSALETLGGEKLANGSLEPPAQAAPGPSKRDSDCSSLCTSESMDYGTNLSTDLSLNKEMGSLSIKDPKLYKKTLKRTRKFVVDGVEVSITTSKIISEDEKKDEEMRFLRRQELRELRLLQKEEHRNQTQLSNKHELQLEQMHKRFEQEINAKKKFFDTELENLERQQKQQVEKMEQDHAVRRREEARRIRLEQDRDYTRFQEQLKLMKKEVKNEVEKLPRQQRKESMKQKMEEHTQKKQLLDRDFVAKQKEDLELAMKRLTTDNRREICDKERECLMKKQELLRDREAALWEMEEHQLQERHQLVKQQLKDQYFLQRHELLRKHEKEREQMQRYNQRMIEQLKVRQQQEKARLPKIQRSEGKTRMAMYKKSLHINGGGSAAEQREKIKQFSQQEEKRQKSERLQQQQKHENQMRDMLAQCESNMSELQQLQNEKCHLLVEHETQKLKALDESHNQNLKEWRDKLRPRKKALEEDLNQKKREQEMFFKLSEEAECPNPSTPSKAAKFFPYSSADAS

SMILES | Kd [1] | Kd [2] | Kd [3] | Kd [4] | Kd [5] | Kd [6] | Kd [7] | Kd [8] | Kd [9] | Kd [10] | Kd [11] | pKd [4]
Cn1cc(C2=C(c3cn(C4CCN(Cc5ccccn5)CC4)c4ccccc34)C(=O)NC2=O)c2ccccc21 [ENZASTAURIN] | > 30 µM (inactive) | > 30 µM (inactive) |  |  |  |  |  |  |  |  |  | 
CC(C)(C)c1nc(-c2cccc(NS(=O)(=O)c3c(F)cccc3F)c2F)c(-c2ccnc(N)n2)s1 [DABRAFENIB] | > 30 µM (inactive) | 0.318 µM (active) | 2 µM (active) | > 30 µM (inactive) | > 30 µM (inactive) | 0.52 µM (active) |  |  |  |  |  | 
CCNC(=O)C#Cc1ccc2c(c1)NC(=O)/C2=C(\Nc1ccc(CN(C)C)cc1)c1ccccc1 | > 30 µM (inactive) | 2.97 µM (active) | > 30 µM (inactive) | > 30 µM (inactive) | > 30 µM (inactive) | 0.333 µM (active) | > 30 µM (inactive) | > 30 µM (inactive) | 0.136 µM (active) | > 30 µM (inactive) |  | 
COc1cc(Nc2ncc3c(n2)-c2ccc(Cl)cc2C(c2c(F)cccc2OC)=NC3)ccc1C(=O)O [ALISERTIB] | > 30 µM (inactive) | > 30 µM (inactive) | > 30 µM (inactive) |  |  |  | > 30 µM (inactive) |  | > 30 µM (inactive) |  | > 30 µM (inactive) | 
O=C(Nc1cc(C(F)(F)F)cc(C(F)(F)F)c1)c1cc(Cl)ccc1O [IMD-0354] | > 30 µM (inactive) | > 30 µM (inactive) | > 30 µM (inactive) |  | > 30 µM (inactive) | > 30 µM (inactive) | > 30 µM (inactive) | > 30 µM (inactive) | > 30 µM (inactive) |  | > 30 µM (inactive) | 
N#CC[C@H](C1CCCC1)n1cc(-c2ncnc3[nH]ccc23)cn1 [RUXOLITINIB] | > 30 µM (inactive) | > 30 µM (inactive) |  |  |  |  |  |  |  |  |  | 
Cc1nc2cc(-c3nn(C(C)C)c4ncnc(N)c34)ccc2o1 | > 30 µM (inactive) | > 30 µM (inactive) | > 30 µM (inactive) | > 30 µM (inactive) | > 30 µM (inactive) | > 30 µM (inactive) | > 30 µM (inactive) | > 30 µM (inactive) |  | > 30 µM (inactive) |  | 
Cc1[nH]c(/C=C2\C(=O)Nc3ccccc32)c(C)c1CCC(=O)O [ORANTINIB] | > 30 µM (inactive) | > 30 µM (inactive) | > 30 µM (inactive) |  |  |  | > 30 µM (inactive) |  |  |  | 0.744 µM (active) | 
CNC(=O)c1ccccc1Sc1ccc2c(/C=C/c3ccccn3)n[nH]c2c1 [AXITINIB] | > 30 µM (inactive) | > 30 µM (inactive) |  |  |  |  |  |  |  |  |  | 
C[C@@H](Oc1cc(-n2cnc3ccc(CN4CCN(C)CC4)cc32)sc1C(N)=O)c1ccccc1C(F)(F)F [GSK-461364] | > 30 µM (inactive) | > 30 µM (inactive) |  |  |  |  |  |  |  |  |  | 
CN1CCN(CCOc2cc(OC3CCOCC3)c3c(Nc4c(Cl)ccc5c4OCO5)ncnc3c2)CC1 [SARACATINIB] | > 30 µM (inactive) | > 30 µM (inactive) | 4.85 µM (active) | > 30 µM (inactive) | > 30 µM (inactive) | > 30 µM (inactive) | > 30 µM (inactive) | > 30 µM (inactive) | 11.7 µM (active) | > 30 µM (inactive) |  | 
NC(=O)Nc1cc(-c2cccc(F)c2)sc1C(=O)N[C@H]1CCCNC1 [AZD-7762] | > 30 µM (inactive) | > 30 µM (inactive) | 0.043 µM (active) |  | 3.1 µM (active) | 0.722 µM (active) | > 30 µM (inactive) | 1.68 µM (active) | 0.36 µM (active) |  | 0.552 µM (active) | 

Results, then the molecule that gave them:

Kd [1] | Kd [2] | Kd [3] | Kd [4] | Kd [5] | Kd [6] | Kd [7] | Kd [8] | Kd [9] | Kd [10] | Kd [11] | pKd [4] | SMILES
> 30 µM (inactive) | > 30 µM (inactive) | > 30 µM (inactive) | > 30 µM (inactive) | > 30 µM (inactive) | > 30 µM (inactive) | > 30 µM (inactive) | > 30 µM (inactive) | > 30 µM (inactive) | > 30 µM (inactive) |  |  | COc1cc2ncnc(Oc3cccc(NC(=O)Nc4cc(C(C)(C)C(F)(F)F)on4)c3)c2cc1OC [CEP-32496]
> 30 µM (inactive) | 1.72 µM (active) | 0.266 µM (active) | 26.1 µM (active) | > 30 µM (inactive) | > 30 µM (inactive) | > 30 µM (inactive) | 0.105 µM (active) | > 30 µM (inactive) | > 30 µM (inactive) |  |  | CNC(=O)c1nn(C)c2c1C(C)(C)Cc1cnc(Nc3ccc(N4CCN(C)CC4)cc3)nc1-2 [MILCICLIB]
> 30 µM (inactive) | 2.08 µM (active) | 9.65 µM (active) |  |  |  | > 30 µM (inactive) |  | 0.309 µM (active) |  |  |  | CC(=O)NCC(=O)N1[C@@H]2CC[C@H]1c1ccc(Nc3ncc(C(F)(F)F)c(NC4CCC4)n3)cc12 [PF-03814735]
> 30 µM (inactive) | > 30 µM (inactive) | > 30 µM (inactive) | > 30 µM (inactive) | > 30 µM (inactive) | > 30 µM (inactive) | > 30 µM (inactive) | > 30 µM (inactive) | > 30 µM (inactive) |  | > 30 µM (inactive) |  | Cc1cnc(NC(=O)Nc2cc(Br)c(C)cc2OC[C@@H]2CNCCO2)cn1 [RABUSERTIB]
> 30 µM (inactive) | > 30 µM (inactive) |  |  |  |  |  |  |  |  |  |  | O=C(NOCCO)c1cc(CN2OCCCC2=O)c(F)c(F)c1Nc1ccc(I)cc1F [RO-4987655]
> 30 µM (inactive) | > 30 µM (inactive) |  |  |  |  | 3.57 µM (active) |  | 0.515 µM (active) |  |  |  | NC(=O)c1c(OCc2c(F)cc(Br)cc2F)nsc1NC(=O)NCCCCN1CCCC1 [OSI-632]
> 30 µM (inactive) | > 30 µM (inactive) | > 30 µM (inactive) |  | > 30 µM (inactive) | > 30 µM (inactive) | > 30 µM (inactive) | > 30 µM (inactive) | 4.39 µM (active) |  | > 30 µM (inactive) | 5.40 | Cn1cc(-c2cnn3c(N)c(Br)c([C@@H]4CCCNC4)nc23)cn1 [SCH-900776]
